Laboratory results published in EP0812825B1, “PROPENONE DERIVATIVES” (KYOWA HAKKO KOGYO CO., LTD., priority 1995, dated 1997).

Tests used:
[1] = test system: HeLa S3 cells; assay: HeLa S3 cell growth inhibition test (neutral red staining); assay type: cell-based; settings: Homo sapiens; HeLa S3, 72 hours culture with compound
Procedure: Test Example 1: HeLa S3 Cell Growth Inhibition Test
Each 0.1 ml of HeLa S3 cells which had been prepared to 3 x 10^4 cells/ml using a medium consisting of MEM medium, 10% fetal bovine serum, and 2 mM glutamine was distributed in each well of 96 well-microtiter plate.
HeLa S3 was cultured at 37°C for one night in a CO2 incubator, each 0.05 ml of test compounds which had been appropriately diluted with the culture solution was added thereto, and the mixture was cultured at 37°C for 72 hours in a CO2 incubator. Supernatant was removed, each 0.1 ml of the culture solution containing 0.02% neutral red was added to the residue, the mixture was incubated at 37°C for one hour in a CO2 incubator, and the cells were stained. Supernatant was removed and the residue was washed once with physiological saline. Then, the pigment was extracted with 0.001 N hydrochloric acid/30% ethanol and the absorbance at 550 nm was measured by a microplatereader. A concentration of the test compound (IC50) at which the growth of cell is inhibited by 50% was calculated by comparing the absorbance of non-treated cells and that of cells treated with a predetermined concentration of the test compound.

[2] = test system: T-Cell Proliferation; assay: T-cell proliferation inhibitory test using mouse mixed lymphocyte reaction (MLR), [3H]-thymidine incorporation; assay type: cell-based; settings: 72 hours
Procedure: Test Example 5: T-Cell Proliferation Inhibitory Test Using Mouse Mixed Lymphocyte Reaction (MLR)
Spleen was sterilly removed from C3H/He mouse and single cell suspension was prepared. This suspension was irradiated with 2000R X-ray and adjusted into 8 x 10^6 cells/ml. 50 µl of lymph-node cells of BALB/c mouse (containing 2 x 10^5 cells), 50 µl of X-ray irradiated spleen cell suspension of C3H/He mouse (containing 4 x 10^5 cells), and 50 µl of determined concentration of test compound solution were added in each well of 96 well microtiter plate and cultured at 37°C for 72 hours in the CO2 incubator. Eight hours before the end of culture, [^3H]-Thymidine (1.85 KBq) was added. At the end of culture, cells were trapped. on the filter paper by cell harvester and dried. Toluene type scintillator was added and radioactivity of [^3H]-Thymidine incorporated into cells was measured by liquid scintillation counter.
Suppression rate of T-cell proliferation was calculated according to the following equation. Suppression rate (%) =((Radioactivity in control group) - (Radioactivity in test group))/((Radioactivity in control group) - (Radioactivity in X-ray irradiated C3H/He+Radioactivity in Balb/c))× 100 [formula]

[3] = test system: Delayed Type Hypersensitivity Footpad Reaction; assay: Effect against delayed type hypersensitivity footpad reaction (TNBS-immunized mice); assay type: in vivo, BALB/c mice
Procedure: Male BALB/c mice (8-weeks-old, Charles River Japan Inc.) were immunized by intradermally injection in the dorsal flank of 100 µl of 10mM 2,4,6-trinitrobenzenesulfonic acid (TNBS) in saline. Five mice were used in each group, that is, control group [0.5% methylcellulose containing 10% dimethyl sulfoxide (DMSO)-administered group], Cyclosporine A (Sandoz)-administered group, and test compound-administered group wherein a determined concentration of test compound suspended in 0.5% methylcellulose containing 10% DMSO was administered. Each of Cyclosporine A and test compound was intraperitoneally administered 30 minutes before and once a day for 4 days after immunization. 50 µl of 10mM TNBS was intradermally injected as a challenging antigen 5 days after immunization when antigen-sensitization was developed. Thickness of both footpads of each animal in each dose of test compound-administered group was measured with a dial thickness gauge 18 hours after antigen challenge, and the value of the difference in thickness of left and right footpad (T) was determined. On the other hand, thickness of both footpads in control group was measured, and the value of the difference in thickness of left and right footpad (C) was determined. Suppression rate in footpad reaction was calculated as [(C - T)/C] x 100.

[4] = test system: anti-Trinitrophenol (TNP) Antibody Production; assay: Effect against anti-trinitrophenol (TNP) antibody production (serum ELISA); assay type: in vivo, BALB/c mice
Procedure: Mice which were used for the effect against delayed type hypersensitivity footpad reaction were bled, the sera were separated by centrifugation at 3000rpm at 4°C for 10 minutes, and then anti-TNP antibody titer was measured. For measuring anti-TNP antibody, enzyme-linked immunosorbent assay (ELISA) was used. […] Peroxidase labeled anti-mouse IgG+IgA+IgM (American Qualex International, Inc.) was added and bound to anti-TNP antibody in culture supernatant which was bound to plate. Orthophenylenediamine (Wako Pure Chemical Industries, Ltd) solution containing hydrogen peroxide (Wako Pure Chemical Industries, Ltd) was added and enzyme reaction was started. After sufficient coloring, coloring reaction was stopped by addition of 10% […] (Wako Pure Chemical Industries, Ltd) and absorbance at 490nm was measured by immunoreader (Intermed Japan, NJ-2000).
Suppression rate of anti-TNP antibody production by test compound was calculated according to the following equation.

[5] = dose 3.0 mg/kg x 5, intraperitoneally
[6] = dose 10 mg/kg x 5, intraperitoneally

| SMILES | IC50 [1] | further results |
| --- | --- | --- |
| COc1cc(C(=O)/C(=C/c2c[nH]c3ccccc23)Oc2ccc(Br)cc2)cc(OC)c1OC [Compound 8, (Z)-2-(4-Bromophenoxy)-3-(indol-3-yl)-1-(3,4,5-trimethoxyphenyl)-2-propen-1-one] | 62 nM |  |
| COc1cc(C(=O)/C(=C/c2cn(C)c3ccccc23)SCC(O)CO)cc(OC)c1OC (stereo not drawn) [Compound 22, (Z)-2-(2,3-Dihydroxypropylthio)-3-(1-methylindol-3-yl)-1-(3,4,5-trimethoxyphenyl)-2-propen-1-one] | 20 nM |  |
| COc1cc(C(=O)/C(=C/c2c[nH]c3cc(C)ccc23)SCCO)cc(OC)c1OC [Compound 13, (Z)-2-(2-Hydroxyethylthio)-3-(6-methylindol-3-yl)-1-(3,4,5-trimethoxyphenyl)-2-propen-1-one] | 2.5 nM |  |
| COc1cc(C(=O)/C(=C/c2c[nH]c3cccc(C)c23)SCC(O)CO)cc(OC)c1OC (stereo not drawn) [Compound 23, (Z)-2-(2,3-Dihydroxypropylthio)-3-(4-methylindol-3-yl)-1-(3,4,5-trimethoxyphenyl)-2-propen-1-one] | 19 nM |  |
| COc1cc(C(=O)/C(=C/c2c[nH]c3cc(F)ccc23)SCC(O)CO)cc(OC)c1OC (stereo not drawn) [Compound 32, (Z)-2-(2,3-Dihydroxypropylthio)-3-(6-fluoroindol-3-yl)-1-(3,4,5-trimethoxyphenyl)-2-propen-1-one] | 5.9 nM |  |
| COc1cc(C(=O)/C(=C/c2c[nH]c3ccccc23)CCC(O)CO)cc(OC)c1OC (stereo not drawn) [Compound 19, (E)-2-(3,4-Dihydroxybutyl)-3-(indol-3-yl)-1-(3,4,5-trimethoxyphenyl)-2-propen-1-one] | 2.1 nM |  |
| CCc1ccc2c(/C=C(\SCC(O)CO)C(=O)c3cc(OC)c(OC)c(OC)c3)c[nH]c2c1 (stereo not drawn) [Compound 29, (Z)-2-(2,3-Dihydroxypropylthio)-3-(6-ethylindol-3-yl)-1-(3,4,5-trimethoxyphenyl)-2-propen-1-one] | 18 nM |  |
| COc1cc(C(=O)/C(=C/c2c[nH]c3ccccc23)SC)cc(OC)c1OC [Compound 9, (Z)-3-(Indol-3-yl)-2-methylthio-1-(3,4,5-trimethoxyphenyl)-2-propen-1-one] | 2.2 nM |  |
| COc1cc(C(=O)/C(=C/c2c[nH]c3ccccc23)OC(C)C)cc(OC)c1OC [Compound 4, (Z)-2-Isopropyloxy-3-(indol-3-yl)-1-(3,4,5-trimethoxyphenyl)-2-propen-1-one] | 3.7 nM |  |
| COc1cc(C(=O)/C(=C/c2c[nH]c3ccc(F)cc23)SCC(O)CO)cc(OC)c1OC (stereo not drawn) [Compound 27, (Z)-2-(2,3-Dihydroxypropylthio)-3-(5-fluoroindol-3-yl)-1-(3,4,5-trimethoxyphenyl)-2-propen-1-one] | 6.3 nM |  |
| COc1cc(C(=O)/C(=C/c2c[nH]c3ccccc23)SCC(O)CO)cc(OC)c1OC (stereo not drawn) [Compound 21, (Z)-2-(2,3-Dihydroxypropylthio)-3-(indol-3-yl)-1-(3,4,5-trimethoxyphenyl)-2-propen-1-one] | 4.8 nM | inhibition at 0.1 µM ([2]; concentration 10^-7 M, read-out: Suppression rate(%)): 107%; inhibition at 0.01 µM ([2]; concentration 10^-8 M, read-out: Suppression rate(%)): 106%; inhibition at 0.001 µM ([2]; concentration 10^-9 M, read-out: Suppression rate(%) (converted)): 7.8%; Suppression rate(%) [3, 5]: 8.5 (3.0) %; Suppression rate(%) [3, 6]: 69 (10) %; Suppression rate(%) [4, 5]: 15 (3.0) %; Suppression rate(%) [4, 6]: 57 (10) % |
| COc1cc(C(=O)/C(=C/c2c[nH]c3cc(Cl)ccc23)SCC(O)CO)cc(OC)c1OC (stereo not drawn) [Compound 31, (Z)-3-(6-Chloroindol-3-yl)-2-(2,3-dihydroxypropylthio)-1-(3,4,5-trimethoxyphenyl)-2-propen-1-one] | 7.2 nM |  |
| CCO/C(=C\c1c[nH]c2ccccc12)C(=O)c1cc(OC)c(OC)c(OC)c1 [Compound 2, (Z)-2-Ethoxy-3-(indol-3-yl)-1-(3,4,5-trimethoxyphenyl)-2-propen-1-one] | 2.5 nM |  |
| COc1cc(C(=O)C(=Cc2c[nH]c3cc(C)ccc23)SC[C@@H](O)[C@H](O)CO)cc(OC)c1OC [Compound 36, 3-(6-Methylindol-3-yl)-2-[(2S),(3R)-2,3,4-trihydroxybutylthio]-1-(3,4,5-trimethoxyphenyl)-2-propen-1-one] | 5.3 nM |  |
| CO/C(=C\c1c[nH]c2ccccc12)C(=O)c1cc(OC)c(OC)c(OC)c1 [Compound 1, (Z)-3-(Indol-3-yl)-2-methoxy-1-(3,4,5-trimethoxyphenyl)-2-propen-1-one] | 2.4 nM |  |
| COc1cc(C(=O)C(=Cc2c[nH]c3cc(C)ccc23)SC[C@H](O)[C@@H](O)CO)cc(OC)c1OC [Compound 37, 3-(6-Methylindol-3-yl)-2-[(2R),(3S)-2,3,4-trihydroxybutylthio)-1-(3,4,5-trimethoxyphenyl)-2-propen-1-one] | 7.1 nM |  |
| COc1cc(C(=O)/C(=C/c2c[nH]c3cc(C)ccc23)CCC(O)CO)cc(OC)c1OC (stereo not drawn) [Compound 20, (E)-2-(3,4-Dihydroxybutyl)-3-(6-methylindol-3-yl)-1-(3,4,5-trimethoxyphenyl)-2-propen-1-one] | 5.6 nM |  |
| COC(=O)CS/C(=C\c1c[nH]c2ccccc12)C(=O)c1cc(OC)c(OC)c(OC)c1 [Compound 16, (Z)-3-(Indol-3-yl)-2-methoxycarbonylmethylthio-1-(3,4,5-trimethoxyphenyl)-2-propen-1-one] | 4.7 nM |  |
| COc1cc(C(=O)/C(=C/c2c[nH]c3cccc(Cl)c23)SCC(O)CO)cc(OC)c1OC (stereo not drawn) [Compound 24, (Z)-3-(4-Chloroindol-3-yl)-2-(2,3-dihydroxypropylthio)-1-(3,4,5-trimethoxyphenyl)-2-propen-1-one] | 15 nM |  |
| COc1cc(C(=O)/C(=C/c2c[nH]c3ccccc23)Oc2ccccc2C)cc(OC)c1OC [Compound 7, (Z)-3-(Indol-3-yl)-2-(2-methylphenoxy)-1-(3,4,5-trimethoxyphenyl)-2-propen-1-one] | 68 nM |  |
| COc1cc(C(=O)/C(=C/c2c[nH]c3cc(C)ccc23)SCC(O)CO)cc(OC)c1OC (stereo not drawn) [Compound 28, (Z)-2-(2,3-Dihydroxypropylthio)-3-(6-methylindol-3-yl)-1-(3,4,5-trimethoxyphenyl)-2-propen-1-one] | 6.3 nM |  |
| CCCO/C(=C\c1c[nH]c2ccccc12)C(=O)c1cc(OC)c(OC)c(OC)c1 [Compound 3, (Z)-3-(Indol-3-yl)-2-propyloxy-1-(3,4,5-trimethoxyphenyl)-2-propen-1-one] | 13 nM |  |
| COc1cc(C(=O)C(=Cc2c[nH]c3ccccc23)SCC(O)C(O)CO)cc(OC)c1OC [Compound 35, 3-(Indol-3-yl)-2-[(2S),(3R)-2,3,4-trihydroxybutylthio]-1-(3,4,5-trimethoxyphenyl)-2-propen-1-one] | 4.4 nM |  |
